Laboratory results as given in PMC7397144, “Alkyl and Aryl Derivatives Based on p-Coumaric Acid Modification and Inhibitory Action against Leishmania braziliensis and Plasmodium falciparum” (Molecules, 2020).
Converted amounts (≈) assume the structure as drawn. Where a name gives a salt, the structure may show the parent alone. Read-outs that look alike come from different tables or passages of the source.

Columns and labels:
Leishmania amazonensis = tested on: Leishmania amazonensis; parameters: method as in Lima et al. (2016) 46; details: ref Lima et al. (2016) 46; cited from earlier work
in vitro = test: in vitro
Description: The compounds were analyzed for viability of the human pro-monocytic cell line U-937 (ATCC CRL- 1593.2TM) using an MTT (3-(4,5-dimethylthiazol-2-yl)-2,5- diphenyltetrazolium bromide) assay based on a previously described methodology, assessing cytotoxic activity. The resulting compounds were determined by measuring mitochondrial dehydrogenase activity, adding […] of MTT solution (0.5 mg/mL) and incubation at 37 °C for 3 h. Cell viability was defined from the quantity of formazan produced and the intensity of color (absorbance) registered through optical density (O.D.) obtained at 570 nm in a (VarioskanTM Flash Multimode Reader—Thermo Scientific, Waltham, MA, USA) spectrophotometer. As a negative control, isolated cells were cultured (without the compounds) to observe viability. […] We performed two independent tests with each concentration, in triplicate.
Cytotoxicity was determined according to the viability and mortality percentages obtained in each experimental condition (synthesized compounds, amphotericin B, benznidazole, chloroquine, and culture medium). Viability percentages were first calculated using Equation (1). (1) % Viability=O.D exposed cells÷O.D Control cells × 100 Then, cell growth inhibition percentage was calculated as 100 - % viability.
The cell growth inhibition percentages were used to calculate median lethal concentrations (LC50) using Probit analysis.

[1] = tested on: Leishmania braziliensis amastigotes; test: In vitro antileishmanial activity, intracellular amastigotes (EGFP, flow cytometry); format: cell-based; details: intracellular amastigotes in U-937 cells, 72 h, mean ± SD
Description: The activities of the derivatives in L. braziliensis intracellular amastigotes, transfected with the green fluorescent protein gene (MHOM/CO/88/UA301-EGFP) were evaluated. Initially, human U-937 cells at a density of 3 × 10^5 cells/mL in RPMI 1640 and 0.1 μg/mL PMA (phorbol-12-myristate-13-acetate) were dispensed in a 24-well microplate and incubated at 37 °C, and 5% CO2. At 72 h of incubation, the cells were infected with growing (stationary phase) promastigotes; 15 parasites per cell. The plates were incubated at 34 °C and 5% CO2 for 3 h and the cells then washed twice with phosphate buffer solution (PBS) to eliminate non-internalized parasites. Fresh RPMI-1640 was added to each well (1 mL) and the plates were incubated again to complete the infection. […] The cells were then removed from the bottom plate with a trypsin/EDTA solution (250 mg), and centrifuged at 1100 rpm for 10 min at 4 °C; the supernatant was discarded and the cells were washed with 1 mL of cold PBS and centrifuged twice at 1100 rpm for 10 min at 4 °C. After this final wash, the supernatant was discarded and the cells were suspended in 500 μL of PBS.
The cells were run in a flow cytometer (Cytomics FC 500MPL), reading at 488 nm (exciting) and 525 nm (emitting) over an argon laser, and counting 10,000 events. Infected cells were determined according to green fluorescence events (parasites). Infected cells exposed to the control drug (amphotericin B) were used as antileishmanial activity controls (positive control). Infected cells incubated in the absence of any compound or drug were used as infection controls (negative control). Non-specific fluorescence was corrected by subtracting fluorescence from unstained cells. All determinations were performed in triplicate, in at least two independent experiments.
(§1) Data for percentages of parasite reduction or inhibition were used to calculate the EC50 using Probit linear regression modeling. […] The selectivity index (SI) was calculated dividing cytotoxic activity by anti-parasitic activity using the following formula: SI = CL50 ÷ CE50.

[2] = tested on: Plasmodium falciparum 3D7; test: In vitro antiplasmodial activity (LDH, Malstat); format: cell-based; details: for EC50: Plasmodium falciparum
Description: Cultures of asynchronous P. falciparum 3D7 strains were adjusted for 0.5% parasitemia and 1% hematocrit in RPMI medium enriched with 3% lipid-rich bovine serum albumin—Albumax II. […] The plates were incubated for 48 h at 37 °C in an atmosphere of N2 (90%), CO2 (5%) and O2 (5%). After incubation, the parasites were harvested and subjected to three 20-min freeze-thaw cycles. At the same time, 100 µL of Malstat reagent (400 µL of Triton X-100 in 80 mL of deionized water, 4 g of L-lactate, 1.32 g of Tris buffer, and 0.022 g of adenine acetylpyridine dinucleotide in 200 mL of deionized water; pH 9.0), and […] of NBT/PES solution (0.16 g of nitroblue-tetrazolium salt, and 0.08 g of phenazine sulfate in 100 mL of deionized water) were added to each well of an additional 96-well plate. After freezing and thawing cycles, the culture in each of the wells on the first plate was re-suspended by pipetting, and 15 µL was removed from each well and added to the corresponding well on the additional plate (containing the Malstat and NBT/PES reagents). After one hour of incubation in the dark, the color development of the lactate dehidrogenase (LDH) reaction was read on a spectrofluorometer (Varioskan, Thermo, Waltham, MA, USA) at 650 nm. The color intensity in each experimental condition was recorded in fluorescent units (F.U). Non-specific fluorescence was corrected by subtracting F.U. from the blanks. The entire experiment was performed in triplicate in at least two independent experiments. Chloroquine (QC) was used as a positive control and the culture medium was used as a negative control.
The antiplasmodial activity of each compound was evaluated through reduction in parasite growth, calculated according to Equation (2):(2) % parasite inhibition=100−F.U exposed parasites÷F.U non exposed parasites × 100
as §1

Trypanosoma brucei = tested on: Trypanosoma brucei; parameters: method as in Steverding et al. (2016) 51; details: ref Steverding et al. (2016) 51; cited from earlier work
L. amazonensis = tested on: L. amazonensis; parameters: method as in ref 41 = [41]; 41. Monzote L. Córdova W.H.P. García M. Piñón A. Setzer W.N. In-vitro and In-vivo Activities of Phenolic Compounds Against Cutaneous Leishmaniasis Rec. Nat. Prod. 2016 10 269 276; details: cited from earlier work
P. falciparum = tested on: P. falciparum; parameters: method as in ref 42 = [42]; 42. Sudi S. Hassan W.R.M. Ali A.H. Basir R. Embi N. Sidek H.M. A derivative of cinnamic acid, methyl-4-hydroxycinnamate modulates inflammatory cytokine levels in malaria-infected mice through inhibiti; details: cited from earlier work
[3] = 3D7, 48 h, read-out: Plasmodium falciparum EC50, 3D7 strain, 48 h, mean ± SD

CCOC(=O)/C=C/c1ccc(O)c(O)c1 [ethyl caffeate]
activity against Leishmania amazonensis (Leishmania amazonensis): no activity

COCCOC(=O)/C=C/c1ccc(O)cc1 [Compound 5, methoxy-ethyl p-coumarate]
CC50 (in vitro): 127 ± 16.5 µg/mL (≈ 570 µM) | EC50 [1]: 87 ± 18.1 µg/mL (≈ 391 µM) | EC50 [2, 3]: 98.7 ± 17.7 µg/mL (≈ 444 µM)

CC(C)OC(=O)/C=C/c1ccc(O)cc1 [Compound 4, isopropyl p-coumarate]
CC50 (in vitro): 96.2 ± 18.9 µg/mL (≈ 467 µM) | EC50 [1]: 28.33 ± 0.27 µg/mL (≈ 137 µM) | EC50 [2, 3]: 106 ± 9.97 µg/mL (≈ 514 µM)

CCCCOC(=O)/C=C/c1ccc(O)cc1 [Compound 6, butyl p-coumarate]
CC50 (in vitro): 30.9 ± 6.32 µg/mL (≈ 140 µM) | EC50 [1]: 323 ± 50 µg/mL (≈ 1470 µM) | EC50 [2, 3]: 199 ± 7.9 µg/mL (≈ 903 µM)

CC(C)CCOC(=O)/C=C/c1ccc(O)c(O)c1 [isopentyl caffeate]
antiparasitic activity against Trypanosoma brucei (Trypanosoma brucei): antiparasitic activity

O=C(O)C=Cc1ccc(O)cc1 [p-Coumaric acid]
antiparasitic activity against L. amazonensis (L. amazonensis): presents antiparasitic activity

CCCCCCCCCCCCOC(=O)/C=C/c1ccc(O)cc1 [Compound 10, dodecyl p-coumarate]
CC50 (in vitro): 15.4 ± 1.84 µg/mL (≈ 46.4 µM) | EC50 [1]: 16.3 ± 0.49 µg/mL (≈ 49.1 µM) | EC50 [2, 3]: 81.2 ± 8.54 µg/mL (≈ 244 µM)

CCOC(=O)/C=C/c1ccc(O)cc1 [Compound 2, ethyl p-coumarate]
CC50 (in vitro): 1.06 ± 1.08 µg/mL (≈ 5.51 µM) | EC50 [1]: 4.91 ± 0.64 µg/mL (≈ 25.5 µM) | EC50 [2, 3]: 110 ± 30.8 µg/mL (≈ 574 µM)

CCCCCOC(=O)/C=C/c1ccc(O)cc1 [Compound 7, pentyl p-coumarate]
CC50 (in vitro): 16.1 ± 3.81 µg/mL (≈ 68.7 µM) | EC50 [1]: 32 ± 5.05 µg/mL (≈ 137 µM) | Plasmodium falciparum EC50 ([2]; 3D7 strain, 48 h, mean ± SD): 95.48 ± 1.84 µg/mL | EC50 [2, 3]: 156 ± 8.2 µg/mL (≈ 667 µM)

CC(C)CCOC(=O)/C=C/c1ccc(O)cc1 [Compound 8, isopentyl p-coumarate]
CC50 (in vitro): 19.6 ± 1.76 µg/mL (≈ 83.6 µM) | EC50 [1]: 6.02 ± 0.22 µg/mL (≈ 25.7 µM) | Plasmodium falciparum EC50 ([2]; 3D7 strain, 48 h, mean ± SD): 156.37 ± 8.2 µg/mL | EC50 [2, 3]: 95.5 ± 1.84 µg/mL (≈ 408 µM)

CC(C)c1ccc(COC(=O)/C=C/c2ccc(O)cc2)cc1 [Compound 12, 4-isopropylbenzyl p-coumarate]
CC50 (in vitro): 35.2 ± 13.9 µg/mL (≈ 119 µM) | EC50 [1]: 11.2 ± 0.2 µg/mL (≈ 37.8 µM) | EC50 [2, 3]: 93.7 ± 14.2 µg/mL (≈ 316 µM)

CCN(CC)CCCC(C)Nc1ccnc2cc(Cl)ccc12 (stereo not drawn) [CQ, chloroquine diphosphate salt, reference compound]
EC50 ([2]; 3D7, 48 h, read-out: Plasmodium falciparum EC50): 3.35 ± 0.39 µg/mL

COC(=O)/C=C/c1ccc(O)cc1 [Compound 1, methyl p-coumarate]
activity against P. falciparum (P. falciparum): presents activity | CC50 (in vitro): 6.26 ± 0.03 µg/mL (≈ 35.1 µM) | EC50 [1]: 8.28 ± 0.14 µg/mL (≈ 46.5 µM) | EC50 ([2]; 3D7 strain, 48 h, mean ± SD, read-out: Plasmodium falciparum EC50): 64.6 ± 2.89 µg/mL (≈ 362 µM)

CCCCCCOC(=O)/C=C/c1ccc(O)cc1 [Compound 9, hexyl p-coumarate]
CC50 (in vitro): 11.2 ± 0.86 µg/mL (≈ 45.3 µM) | EC50 [1]: 4.14 ± 0.55 µg/mL (≈ 16.7 µM) | EC50 [2, 3]: 206 ± 46.4 µg/mL (≈ 831 µM)

Cc1ccc(COC(=O)/C=C/c2ccc(O)cc2)cc1 [Compound 11, 4-methylbenzyl p-coumarate]
CC50 (in vitro): 20.8 ± 3.47 µg/mL (≈ 77.6 µM) | EC50 [1]: 5.69 ± 0.3 µg/mL (≈ 21.2 µM) | EC50 [2, 3]: 84 ± 15.3 µg/mL (≈ 313 µM)

C[C@@H]1[C@H](O)[C@@H](C)/C=C/C=C/C=C/C=C/C=C/C=C/C=C/[C@H](O[C@@H]2O[C@H](C)[C@@H](O)[C@H](N)[C@@H]2O)C[C@@H]2O[C@](O)(C[C@@H](O)C[C@@H](O)[C@H](O)CC[C@@H](O)C[C@@H](O)CC(=O)O[C@H]1C)C[C@H](O)[C@H]2C(=O)O [AMB, amphotericin B, reference compound]
CC50 (in vitro): 38.4 ± 6.3 µg/mL (≈ 41.6 µM) | EC50 [1]: 0.3 ± 0.07 µg/mL (≈ 0.325 µM)

CCCOC(=O)/C=C/c1ccc(O)cc1 [Compound 3, propyl p-coumarate]
CC50 (in vitro): 11.9 ± 0.8 µg/mL (≈ 57.7 µM) | EC50 [1]: 6.3 ± 1.14 µg/mL (≈ 30.5 µM) | EC50 [2, 3]: 139 ± 4.07 µg/mL (≈ 674 µM)
